The numbers were not newly measured in patent US12133849B2, “Method for treating cancer using a BCL-2 inhibitor in conjunction with an alpha- emitting radioimmunotherapeutic” (Actinium Pharmaceuticals, Inc., priority 2017, dated 2024), which cites them from elsewhere.

SMILES strings stand for the structures.

On to `CC1(C)CCC(CN2CCN(c3ccc(C(=O)NS(=O)(=O)c4ccc(NCC5CCOCC5)c([N+](=O)[O-])c4)c(Oc4cnc5[nH]ccc5c4)c3)CC2)=C(c2ccc(Cl)cc2)C1` [venetoclax], for which the “patients experiencing grade 3 and/or 4 neutropenia” value was 40%.
